Data on six compounds can be found in US20240317801A1, “PEPTIDOMIMETIC MATRIPTASE 2 INHIBITORS AND USES THEREOF” (Disc Medicine, Inc., priority 2020, published 2024).

Each structure is given as a SMILES string.

This assay addresses T1, Human Recombinant Matriptase 2 (Homo sapiens, UniProt Q8IU80).
T1 construct: purchased Enzo Life Sciences ALX-201-752-1
T1 sequence (Q8IU80 1-811): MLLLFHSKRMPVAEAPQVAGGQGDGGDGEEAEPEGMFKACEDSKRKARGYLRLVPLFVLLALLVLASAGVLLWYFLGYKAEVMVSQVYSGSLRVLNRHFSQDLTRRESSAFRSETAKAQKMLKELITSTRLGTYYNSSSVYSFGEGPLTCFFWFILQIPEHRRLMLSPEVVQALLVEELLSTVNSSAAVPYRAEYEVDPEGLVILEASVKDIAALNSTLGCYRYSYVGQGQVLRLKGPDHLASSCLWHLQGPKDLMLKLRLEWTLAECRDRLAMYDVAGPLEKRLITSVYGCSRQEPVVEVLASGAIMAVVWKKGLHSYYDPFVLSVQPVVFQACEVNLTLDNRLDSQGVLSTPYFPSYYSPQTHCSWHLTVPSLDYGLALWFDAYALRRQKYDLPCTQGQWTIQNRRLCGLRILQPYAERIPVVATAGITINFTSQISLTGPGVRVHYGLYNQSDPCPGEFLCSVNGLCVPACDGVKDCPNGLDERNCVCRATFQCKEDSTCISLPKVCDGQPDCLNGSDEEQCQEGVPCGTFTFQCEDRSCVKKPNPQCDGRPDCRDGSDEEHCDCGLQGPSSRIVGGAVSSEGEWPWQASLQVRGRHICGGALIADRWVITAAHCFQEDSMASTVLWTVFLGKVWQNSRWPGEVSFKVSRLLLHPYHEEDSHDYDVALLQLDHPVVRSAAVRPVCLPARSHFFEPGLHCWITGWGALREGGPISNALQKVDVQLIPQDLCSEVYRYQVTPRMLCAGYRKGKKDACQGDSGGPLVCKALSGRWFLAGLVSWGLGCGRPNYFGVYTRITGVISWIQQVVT
Put plainly: Matriptase 2 fluorescence-based inhibition assay (Boc-Gln-Ala-Arg-AMC substrate). Type of assay: biochemical. To be noted: Ki derived from measured IC50 using Cheng-Prusoff equation; 30 min preincubation, 100 μM substrate, 25° C., pH 7.5; read-out: Mat-2 Ki. Here is the method: Test compounds were evaluated for their potential to inhibit Human Recombinant Matriptase 2 (in-house and commercial protein from Enzo Life Sciences—cat log—ALX-201-752-1) using fluorescence-based assay. The concentration of Recombinant Matriptase 2 and the substrate used in the assay were: 7 nM (commercial) and 15 nM (In-house Matriptase 2) and 100 μM (Boc-Gln-Ala-Arg-7-amido-4-methyl coumarin hydrobromide—Cat log: B4153-Sigma and I-1550 from Bachem) respectively. The assay buffer used comprised 50 mM TRIS pH 7.5, 150 mM NaCl, 0.01% gelatin (G1393 Sigma). The assay was performed by using 384 well black flat bottom plate from Grenier (Cat log: 781076) at 25° C. The enzyme and the test compound were preincubated for 30 mins, and the plate was read at wavelength Ex: 360/Em:480 nm60 mins after substrate addition. The final assay volume of was 20 μl. Stock solution of compounds were initially prepared in DMSO, which were appropriately diluted for screening to determine IC50 determination (final DMSO conc in the assay was 1%). All the measurements were carried out using the Spectramax M5, Molecular devices. The test compounds were screened at 1 and 10 μM concentrations and IC50 was determined for the interested compounds.
Ki is the binding affinity of an inhibitor. Mat-2 Ki as described herein is the binding affinity of an inhibitor such as a compound as described and provided herein to Mat-2. Mat-2 Ki values are derived from the measured IC50. To determine IC50 values, dose-response curves were generated by plotting percentage inhibition as a function of inhibitor concentration and the data was fitted to a sigmoidal non-linear regression equation (variable slope) using Graph Pad Prism software V7. Mat-2 Ki values as described herein were derived from the IC50 using the Cheng-Prusoff equation, which is understood and appreciated by one the skill in the art. The Mat-2 Ki values of tested compounds as described herein are shown in Table A. Accordingly, the compounds can be used to inhibit matriptase 2 and treat diseases and conditions associated with matriptase 2, such as those described herein.
For orientation: Ki means the dissociation constant of the complex between target and ligand, obtained from inhibition or displacement. With `N=C(N)NCCC[C@H](NC(=O)[C@@H]1C[C@@H](OCc2ccccc2)CN1C(=O)[C@H](CCc1ccccc1)NC(=O)CCc1ccccc1)C(=O)C(=O)NC1CC1` [(2S,4R)-4-(benzyloxy)-N—((S)-1-(cyclopropylamino)-6-guanidino-1,2-dioxohexan-3-yl)-1-((S)-4-phenyl-2-(3-phenylpropanamido)butanoyl)pyrrolidine-2-carboxamide], the Ki was at most 100 nM.
In the case of `C[C@@H](O)[C@H](NC(=O)[C@H](CCc1ccccc1)NC(=O)CCc1ccccc1)C(=O)NC(CCc1nc(N)no1)C(=O)C(=O)NC(C)(C)C` (stereo partly drawn), the inhibition constant Ki is at least 1000 nM.
For `CC(C)[C@H](NC(=O)[C@H](Cc1cscn1)NC(=O)CCc1ccccc1)C(=O)N[C@@H](CCCNC(=N)N)C(=O)C(=O)NC(C)(C)C` the value was at most 100 nM; for `CO[C@@H]1CC(C(=O)N[C@@H](CCCNC(=N)N)C(=O)C(=O)NC(C)(C)C)N(C(=O)[C@H](Cc2cscn2)NC(=O)OCc2ccccc2)C1` (stereo partly drawn), at most 100 nM; for `C[C@@H](O)[C@H](NC(=O)[C@H](CCc1ccccc1)NC(=O)CCc1ccccc1)C(=O)NC(CCCNC(=N)N)C(=O)C(=O)NCc1cccnc1` (stereo partly drawn) [6-guanidino-3-((2S,3R)-3-hydroxy-2-((S)-4-phenyl-2-(3-phenylpropanamido)butanamido)butanamido)-2-oxo-N-(pyridin-3-ylmethyl)hexanamide], at most 100 nM.
For the compound `C[C@@H](O)[C@H](NC(=O)[C@H](CCc1ccccc1)NC(=O)CCc1ccccc1)C(=O)N[C@@H](CCCNC(=N)N)C(=O)C(=O)NC1(c2cccnc2)CC1`, the Ki is at most 100 nM.
